From US20110142848A1, “ANTI-BETA-2-MICROGLOBULIN AGENTS AND THE USE THEREOF” (priority 2008, published 2011) come the findings set out here.

One test has as its system neo-control cells. In words: MTS cell proliferation assay, neo-control cells. Format: cell-based, human. On the procedure: For example, six thousand (6,000) cells per well may be plated in 96 well plates, which may be cultured in 1% DCC-FBS (dextran-coated, charcoal-treated fetal bovine serum) containing T medium (C4-2B) or serum-free T medium (PC3) with 5% CO2 at 37° C. overnight. Cells may then be treated with anti-β2-M mAbs for 48 h. Chemotherapeutic agents, such as PS-341, gemcitabine, cisplatin, doxorubicin, taxotere, or 17-AAG, may then be added to the culture media. Two to four days post-treatment, cell growth may be determined by MTS assay using the CellTiter96 Aqueous One Solution Cell Proliferation Assay (Promega) according to the manufacturer's instructions. Results from these experiments are shown in FIGS. 7-21, with various chemotherapeutic agents.
In general terms: Tetrazolium dyes change colour on reduction, which living cells bring about.

A further test deals with C4-2B (KD) cells. The test can be described thus: MTS cell proliferation assay, C4-2B (KD). It is filed as cell-based, human. The conditions noted are these: C4-2B (KD) versus neo-control. On the procedure: For example, six thousand (6,000) cells per well may be plated in 96 well plates, which may be cultured in 1% DCC-FBS (dextran-coated, charcoal-treated fetal bovine serum) containing T medium (C4-2B) or serum-free T medium (PC3) with 5% CO2 at 37° C. overnight. Cells may then be treated with anti-β2-M mAbs for 48 h. […] Two to four days post-treatment, cell growth may be determined by MTS assay using the CellTiter96 Aqueous One Solution Cell Proliferation Assay (Promega) according to the manufacturer's instructions.

As for `Nc1ccn([C@@H]2O[C@H](CO)[C@@H](O)C2(F)F)c(=O)n1` [gemcitabine], the “growth inhibition by agent alone” value in the test on neo-control cells (gemcitabine at lower doses (10 μM or lower)) is given as “not particularly effective”. Also, in the test with C4-2B (KD) cells, the “sensitivity to growth inhibition, β2-M knockdown cells compared with neo-control cells” value is recorded as “more sensitive”.
For the compound `CC(=O)O[C@@]12CO[C@@H]1C[C@H](O)[C@@]1(C)C(=O)[C@H](O)C3=C(C)[C@@H](OC(=O)[C@H](O)[C@@H](NC(=O)OC(C)(C)C)c4ccccc4)C[C@@](O)([C@@H](OC(=O)c4ccccc4)[C@H]21)C3(C)C` [taxotere], in the test with C4-2B (KD) cells, the “sensitivity to growth inhibition, β2-M knockdown cells compared with neo-control cells” value was “more sensitive”.
For the compound `CC(C)C[C@H](NC(=O)[C@H](Cc1ccccc1)NC(=O)c1cnccn1)B(O)O` [PS-341, bortezomib], the “growth inhibition by agent alone” value in the test with neo-control cells (PS-341 at concentrations of 1 (AM or higher)) is “effective by itself”. The “sensitivity to growth inhibition, β2-M knockdown cells compared with neo-control cells” value in the test with C4-2B (KD) cells is given as “more sensitive”.
In the case of `N.N.[Cl][Pt][Cl]` [cisplatin], in the test with C4-2B (KD) cells, the “sensitivity to growth inhibition, β2-M knockdown cells compared with neo-control cells” value is reported as “more sensitive”.
